Results as given in patent US12098148B2, “Therapeutic compounds” (C4X Discovery Limited, priority 2018, dated 2024).
Where two headings read alike, the source gives them in different places.

Columns and labels:
[1] = target: human KEAP1 (N-term, residues 321-609) (Homo sapiens, UniProt Q14145); experiment: biochemical;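 further: fluorescence polarization competition assay of Kelch domain binding to NRF2, 12-point 1:3 dilution series from 10 µM, read after 1 h at room temperature, floor 10 nM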
Description: Biological Assays KEAP1 Kelch Fluorescence Polarization (FP) Assay Method
Inhibition of the Kelch domain-NRF2 interaction was determined using a fluorescence polarization-based competition assay in a black 384-well microplate. Compounds were tested at a starting concentration of 10 μM serially diluted 1:3 to generate a 12-point dose response curve on the Biomek FX robot.
After 1 h at room temperature, fluorescence polarization (excitation 470 nm/emission 530 nm) was measured using an Envision plate reader. IC50 values were determined by fitting the data to a four parameter logistic fit using XLfit or XE Runner within ActivityBase.

[2] = test system: NQO1 mRNA in BEAS-2B cells; experiment: Beas2B NQO1 mRNA cell based assay; set-up: species or system human; details: 24 h compound treatment, increase in NQO1 mRNA vs vehicle (0.1% DMSO), read-out: EC50
How it was run: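 BEAS-2B human bronchial epithelial cells exposed to compound for 24 h at 37 °C, 5% CO2. NQO1 mRNA measured by one-step TaqMan RT-qPCR on unpurified lysates, normalized to β-actin; relative expression by ΔΔCT method.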

Chain of human KEAP1 (N-term, residues 321-609) (Q14145 321-609): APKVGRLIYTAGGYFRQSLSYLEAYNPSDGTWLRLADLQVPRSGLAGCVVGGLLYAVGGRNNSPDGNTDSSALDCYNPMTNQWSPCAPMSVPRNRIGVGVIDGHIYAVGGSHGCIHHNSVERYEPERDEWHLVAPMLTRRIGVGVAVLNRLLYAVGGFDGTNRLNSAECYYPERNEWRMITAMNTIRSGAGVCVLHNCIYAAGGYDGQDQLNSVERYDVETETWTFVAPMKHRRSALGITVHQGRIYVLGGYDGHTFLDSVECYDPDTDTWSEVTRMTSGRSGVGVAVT

IC50 [1] | Structure (SMILES) | EC50 ([2]; Homo sapiens, BEAS-2B, 24 h) | EC50 [2]
9.7 nM | CC(=O)N1CC[C@H](Oc2ccc(Br)c3c2[C@@H](CN2Cc4ccccc4C2=O)N(C(=O)[C@@H]2CCCC[C@@H]2C(=O)O)CC3)C1 [Example 19, (1S,2R)-2-((S)-8-(((S)-1-acetylpyrrolidin-3-yl)oxy)-5-bromo-1-((1-oxoisoindolin-2-yl)methyl)-1,2,3,4-tetrahydroisoquinoline-2-carbonyl)cyclohexane-1-carboxylic acid] | 130 nM | –
6.7 nM | CC(C)n1cc(COc2ccc(Br)c3c2[C@@H](CN2CC4(CC4)CC2=O)N(C(=O)[C@@H]2CCCC[C@@H]2C(=O)O)CC3)nn1 [Example 76, (1S,2R)-2-((S)-5-bromo-8-((1-isopropyl-1H-1,2,3-triazol-4-yl)methoxy)-1-((6-oxo-5-azaspiro[2.4]heptan-5-yl)methyl)-1,2,3,4-tetrahydroisoquinoline-2-carbonyl) cyclohexane-1-carboxylic acid] | 2.5 nM | –
10 nM | Cn1nnc2cc(COc3cccc4c3[C@@H](CN3Cc5ccccc5C3=O)N(C(=O)[C@@H]3CCCC[C@@H]3C(=O)O)CC4)ccc21 [Example 18, (1S,2R)-2-((S)-8-((1-methyl-1H-benzo[d][1,2,3]triazol-5-yl)methoxy)-1-((1-oxoisoindolin-2-yl)methyl)-1,2,3,4-tetrahydroisoquinoline-2-carbonyl)cyclohexane-1-carboxylic acid] | 73 nM | –
14 nM | CC(C)n1cc(COc2ccc(C(F)(F)F)c3c2[C@@H](CN2Cc4ccccc4C2=O)N(C(=O)[C@@H]2CCCC[C@@H]2C(=O)O)CC3)nn1 [Example 62, (1S,2R)-2-((S)-8-((1-isopropyl-1H-1,2,3-triazol-4-yl)methoxy)-1-((1-oxoisoindolin-2-yl)methyl)-5-(trifluoromethyl)-1,2,3,4-tetrahydroisoquinoline-2-carbonyl)cyclohexane-1-carboxylic acid] | 120 nM | –
5.1 nM | Cn1cc(COc2ccc(Cl)c3c2[C@@H](CN2CCCC2=O)N(C(=O)[C@@H]2CCCC[C@]2(C)C(=O)O)CC3)nn1 [Example 106, (1S,2R)-2-((S)-5-chloro-8-((1-methyl-1H-1,2,3-triazol-4-yl)methoxy)-1-((2-oxopyrrolidin-1-yl)methyl)-1,2,3,4-tetrahydroisoquinoline-2-carbonyl)-1-methylcyclohexane-1-carboxylic acid] | 2.9 nM | –
6.7 nM | CCn1nnc(COc2ccc(Cl)c3c2[C@@H](CN2CCCC2=O)N(C(=O)[C@@H]2CCCC[C@@H]2C(=O)O)CC3)c1C(F)F [Example 79, (1S,2R)-2-((S)-5-Chloro-8-((5-(difluoromethyl)-1-ethyl-1H-1,2,3-triazol-4-yl)methoxy)-1-((2-oxopyrrolidin-1-yl)methyl)-1,2,3,4-tetrahydroisoquinoline-2-carbonyl)cyclohexane-1-carboxylic acid] | 1.2 nM | –
5.3 nM | Cc1nnc(COc2ccc(Cl)c3c2[C@@H](CN2CC4(CC4)CC2=O)N(C(=O)[C@@H]2CCCC[C@]2(C)C(=O)O)CC3)n1C1CC1 [Example 177, (1S,2R)-2-((S)-5-chloro-8-((4-cyclopropyl-5-methyl-4H-1,2,4-triazol-3-yl)methoxy)-1-((6-oxo-5-azaspiro[2.4]heptan-5-yl)methyl)-1,2,3,4-tetrahydroisoquinoline-2-carbonyl)-1-methylcyclohexane-1-carboxylic acid] | 2.2 nM | –
4.7 nM | Cc1cnc(N2CC[C@H](Oc3ccc(Br)c4c3[C@@H](CN3Cc5ccccc5C3=O)N(C(=O)[C@@H]3CCCC[C@@H]3C(=O)O)CC4)C2)s1 [Example 21, (1S,2R)-2-((S)-5-bromo-8-(((S)-1-(5-methylthiazol-2-yl)pyrrolidin-3-yl)oxy)-1-((1-oxoisoindolin-2-yl)methyl)-1,2,3,4-tetrahydroisoquinoline-2-carbonyl)cyclohexane-1-carboxylic acid] | 7.9 nM | –
5.6 nM | CCn1ccc(COc2ccc(Cl)c3c2[C@@H](CN2Cc4ccccc4C2=O)N(C(=O)[C@@H]2CCCC[C@@H]2C(=O)O)CC3)n1 [Example 55, (1S,2R)-2-((S)-5-chloro-8-((1-ethyl-1H-pyrazol-3-yl)methoxy)-1-((1-oxoisoindolin-2-yl)methyl)-1,2,3,4-tetrahydroisoquinoline-2-carbonyl)cyclohexane-1-carboxylic acid] | 73 nM | –
7.4 nM | C[C@H]1CCN(C[C@@H]2c3c(OCc4nnn(C)c4C(F)F)ccc(Cl)c3CCN2C(=O)[C@@H]2CCC[C@]2(C)C(=O)O)C1=O [Example 114, (1S,2R)-2-((1S)-5-Chloro-8-((5-(difluoromethyl)-1-methyl-1H-1,2,3-triazol-4-yl)methoxy)-1-(((S)-3-methyl-2-oxopyrrolidin-1-yl)methyl)-1,2,3,4-tetrahydroisoquinoline-2-carbonyl)-1-methylcyclopentane-1-carboxylic acid] | 16 nM | –
5.9 nM | Cc1cc(COc2ccc(Cl)c3c2[C@@H](CN2CCCC2=O)N(C(=O)[C@@H]2CCCC[C@@H]2C(=O)O)CC3)ns1 [Example 70, (1S,2R)-2-((S)-5-Chloro-8-((5-methylisothiazol-3-yl)methoxy)-1-((2-oxopyrrolidin-1-yl)methyl)-1,2,3,4-tetrahydroisoquinoline-2-carbonyl) cyclohexane-1-carboxylic acid] | 55 nM | –
6 nM | C[C@]1(C(=O)O)CCCC[C@H]1C(=O)N1CCc2c(Cl)ccc(OCc3noc4c(F)cccc34)c2[C@H]1CN1CCCC1=O [Example 164, (1S,2R)-2-((S)-5-chloro-8-((7-fluorobenzo[d]isoxazol-3-yl)methoxy)-1-((2-oxopyrrolidin-1-yl)methyl)-1,2,3,4-tetrahydroisoquinoline-2-carbonyl)-1-methylcyclohexane-1-carboxylic acid] | 2.6 nM | –
5.3 nM | C[C@]1(C(=O)O)CCCC[C@H]1C(=O)N1CCc2c(Cl)ccc(OCc3cncnc3C(F)F)c2[C@H]1CN1CC2(CC2)CC1=O [Example 135, (1S,2R)-2-((S)-5-chloro-8-((4-(difluoromethyl)pyrimidin-5-yl)methoxy)-1-((6-oxo-5-azaspiro[2.4]heptan-5-yl)methyl)-1,2,3,4-tetrahydroisoquinoline-2-carbonyl)-1-methylcyclohexane-1-carboxylic acid] | 0.91 nM | –
8.3 nM | Cn1cnc(COc2ccc(Br)c3c2[C@@H](CN2Cc4ccccc4C2=O)N(C(=O)[C@@H]2CCCC[C@@H]2C(=O)O)CC3)n1 [Example 39, (1S,2R)-2-((S)-5-bromo-8-((1-methyl-1H-1,2,4-triazol-3-yl)methoxy)-1-((1-oxoisoindolin-2-yl)methyl)-1,2,3,4-tetrahydroisoquinoline-2-carbonyl)cyclohexane-1-carboxylic acid] | 45 nM | –
8.5 nM | CC(=O)N1CC[C@H](Oc2c(Cl)cc(Cl)c3c2[C@@H](CN2C(=O)c4ccccc4C2=O)N(C(=O)[C@@H]2CCCC[C@@H]2C(=O)O)CC3)C1 [Example 13, (1S,2R)-2-((S)-8-(((S)-1-Acetylpyrrolidin-3-yl)oxy)-5,7-dichloro-1-((1,3-dioxoisoindolin-2-yl)methyl)-1,2,3,4-tetrahydroisoquinoline-2-carbonyl)cyclohexane-1-carboxylic acid] | 530 nM | –
6.4 nM | Cn1nnc(COc2ccc(F)c3c2[C@@H](CN2CCCC2=O)N(C(=O)[C@@H]2CCCC[C@]2(C)C(=O)O)CC3)c1C(F)(F)F [Example 178, (1S,2R)-2-((S)-5-fluoro-8-((1-methyl-5-(trifluoromethyl)-1H-1,2,3-triazol-4-yl)methoxy)-1-((2-oxopyrrolidin-1-yl)methyl)-1,2,3,4-tetrahydroisoquinoline-2-carbonyl)-1-methylcyclohexane-1-carboxylic acid] | 13 nM | –
8.7 nM | COCCc1c(COc2ccc(Cl)c3c2[C@@H](CN2CCCC2=O)N(C(=O)[C@@H]2CCCC[C@]2(C)C(=O)O)CC3)nnn1C [Example 128, (1S,2R)-2-((i)-5-chloro-8-((5-(2-methoxyethyl)-1-methyl-1H-1,2,3-triazol-4-yl)methoxy)-1-((2-oxopyrrolidin-1-yl)methyl)-1,2,3,4-tetrahydroisoquinoline-2-carbonyl)-1-methylcyclohexane-1-carboxylic acid] | 1.9 nM | –
5 nM | Cn1cc(COc2ccc(Br)c3c2[C@@H](CN2Cc4ccccc4C2=O)N(C(=O)[C@@H]2CCCC[C@@H]2C(=O)O)CC3)nn1 [Example 34, (1S,2R)-2-((S)-5-bromo-8-((1-methyl-1H-1,2,3-triazol-4-yl)methoxy)-1-((1-oxoisoindolin-2-yl)methyl)-1,2,3,4-tetrahydroisoquinoline-2-carbonyl)cyclohexane-1-carboxylic acid] | 3.3 nM | –
8.1 nM | CCn1nnc(COc2ccc(Cl)c3c2[C@@H](CN2CCCC2=O)N(C(=O)[C@@H]2CCC[C@]2(C)C(=O)O)CC3)c1C(F)F [Example 119, (1S,2R)-2-((S)-5-chloro-8-((5-(difluoromethyl)-1-ethyl-1H-1,2,3-triazol-4-yl)methoxy)-1-((2-oxopyrrolidin-1-yl)methyl)-1,2,3,4-tetrahydroisoquinoline-2-carbonyl)-1-methylcyclopentane-1-carboxylic acid] | 18 nM | –
6.4 nM | Cn1nnc2c1CC(Oc1ccc(Cl)c3c1[C@@H](CN1CC4(CC4)CC1=O)N(C(=O)[C@@H]1CCCC[C@]1(C)C(=O)O)CC3)C2 (single isomer, unassigned; isomer 2) [Example 216] | – | 110 nM
